Assay results taken from US20240327375A1, “SUBSTITUTED HETEROBICYCLIC DERIVATIVES AS NEGATIVE ALLOSTERIC MODULATORS OF MGLU7 RECEPTOR” (priority 2021, published 2024).

Target: T1, human mGlu7 (Homo sapiens, UniProt Q14831)
T1 construct: expressed in transfected cells
Experiment: mGlu7 assay on HEK-expressing human mGlu7: fluorescent cell-based Ca2+ mobilization (FLIPR384), inhibition of EC80 L-AP4 response
Conditions: HEK-293 cells expressing hmGlu7, EC80 L-AP4 stimulation; mean of at least three independent experiments in duplicate; read-out: Ca^2+ Flux (mean IC50)
Excerpt: mGlu7 Assay on HEK-Expressing Human mGlu7
The cDNA encoding the human metabotropic glutamate 7 receptor (hmGlu7), (accession number NM_181874.2, NCBI Nucleotide database browser), was subcloned into an expression vector containing also the hygromycin resistance gene. In parallel, the cDNA encoding a G protein allowing redirection of the activation signal to intracellular calcium flux was subcloned into a different expression vector containing also the Puromycin resistance gene. Transfection of both these vectors into HEK293 cells with PolyFect reagent (Qiagen) according to supplier's protocol, and hygromycin and puromycin treatment allowed selection of antibiotic resistant cells which had integrated stably one or more copies of the plasmids. Positive cellular clones expressing hmGlu7 were identified in a functional assay measuring changes in calcium fluxes in response to glutamate and L-AP4 or known mGlu7 orthosteric antagonists.
HEK-293 cells expressing hmGlu7 were maintained in media containing DMEM, Fetal Bovine Serum (10%), Glutamax™ (2 mM), penicillin (100 units/mL), streptomycin (100 μg/mL), geneticin (100 μg/mL) and hygromycin-B (40 μg/mL) and puromycin (1 μg/mL) at 37° C. with 5% CO2 in a humidified atmosphere.
Fluorescent Cell Based- Ca^+ Mobilization Assay Human mGlu7 HEK-293 cells were plated out 24 hours prior to a fluorescent cell-based calcium mobilization assay using FLIPR^384 assay (Molecular Device, Sunnyvale, CA, USA) in black-walled, clear-bottomed, poly-L-ornithine-coated 384-well plates at a density of 25,000 cells/well in a glutamine/glutamate free DMEM medium containing fetal bovine serum (10%), penicillin (100 units/mL), streptomycin (100 μg/mL) and doxycyline (1 μg/ml) at 37° C. with 5% CO2 in a humidified atmosphere.
On the day of the assay, the medium was aspirated and the cells were loaded with a 3 μM solution of Fluo4-AM (LuBioScience, Lucerne, Switzerland) in 0.03% pluronic acid. After 1 hour at 37° C./5% CO2, the non incorporated dye was removed by washing cell plate with the assay buffer. All assays were performed in a pH 7.4 buffered-solution containing 20 mM HEPES, 143 mM NaCl, 6 mM KCl, 1 mM MgSO4, 1 mM CaCl2, 0.125 mM sulfinpyrazone and 0.1% glucose.
After 10 s of basal fluorescence recording, various concentrations of the compounds of the invention were added to the cells. Changes in fluorescence levels were first monitored for 180 s in order to detect any agonist activity of the compounds. Then the cells were stimulated by an EC80 L-AP4 concentration for an additional 110 s in order to measure inhibiting activities of the compounds of the invention. EC80 L-AP4 concentration is the concentration giving 80% of the maximal glutamate response.
The concentration-response curves of L-AP4 or representative compounds of the present invention were generated using the Prism GraphPad software (Graph Pad Inc, San Diego, USA). The curves were fitted to a four-parameter logistic equation: […]
allowing determination of IC50 values.
The Table 3 below represents the mean IC50 obtained from at least three independent experiments of selected molecules performed in duplicate.

T1 sequence (Q14831 35-922 isoform Q14831-2 limits assumed): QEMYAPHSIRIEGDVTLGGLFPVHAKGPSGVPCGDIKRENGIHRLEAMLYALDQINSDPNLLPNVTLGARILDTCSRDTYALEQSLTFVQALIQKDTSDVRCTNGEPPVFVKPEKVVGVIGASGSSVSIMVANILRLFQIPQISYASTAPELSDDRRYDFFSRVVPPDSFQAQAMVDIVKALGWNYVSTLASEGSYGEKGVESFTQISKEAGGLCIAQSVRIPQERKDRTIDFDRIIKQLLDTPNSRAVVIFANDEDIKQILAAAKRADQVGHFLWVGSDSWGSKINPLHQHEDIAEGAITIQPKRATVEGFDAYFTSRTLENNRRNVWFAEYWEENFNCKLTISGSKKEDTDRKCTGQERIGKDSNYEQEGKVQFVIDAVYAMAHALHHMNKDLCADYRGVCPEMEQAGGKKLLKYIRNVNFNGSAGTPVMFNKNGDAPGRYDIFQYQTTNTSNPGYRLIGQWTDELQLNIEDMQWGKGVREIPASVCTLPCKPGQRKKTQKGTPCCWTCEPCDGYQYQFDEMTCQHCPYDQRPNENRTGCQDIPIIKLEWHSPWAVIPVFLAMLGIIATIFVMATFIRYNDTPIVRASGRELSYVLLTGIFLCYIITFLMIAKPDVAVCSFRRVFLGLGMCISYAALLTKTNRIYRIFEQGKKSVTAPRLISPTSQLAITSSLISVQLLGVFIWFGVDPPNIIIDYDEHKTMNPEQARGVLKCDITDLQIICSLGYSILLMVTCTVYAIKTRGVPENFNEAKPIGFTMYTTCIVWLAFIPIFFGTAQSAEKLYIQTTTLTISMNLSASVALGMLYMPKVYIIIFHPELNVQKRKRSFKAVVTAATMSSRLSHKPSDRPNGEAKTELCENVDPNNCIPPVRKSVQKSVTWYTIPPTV

Compound	IC50
CCn1ncc2cc(-c3ccc(C)cc3C)ccc2c1=O [1-1, 6-(2,4-Dimethylphenyl)-2-ethylphthalazin-1(2H)-one]	0.1 to 1 µM
CCn1ncc2cc(-c3c(C)cc(C)cc3C)ccc2c1=O [1-2]	0.1 to 1 µM
CCn1ncc2cc(-c3cccc(OC)c3)ccc2c1=O [1-3]	0.1 to 1 µM
Cc1ccc(-c2ccc3c(=O)n(-c4ccccc4F)ncc3c2)c(C)c1 [1-4, 6-(2,4-Dimethylphenyl)-2-(2-fluorophenyl)phthalazin-1(2H)-one]	0.1 to 1 µM
Cc1ccc(-c2ccc3c(=O)n(-c4ccccc4Cl)ncc3c2)c(C)c1 [1-5, 2-(2-Chlorophenyl)-6-(2,4-dimethylphenyl)phthalazin-1(2H)-one]	0.1 to 1 µM
CCn1ncc2cc(-c3cccc(N(C)C)c3)ccc2c1=O [1-6]	0.1 to 1 µM
CCOc1cccc(-c2ccc3c(=O)n(CC)ncc3c2)c1 [1-7]	0.1 to 1 µM
Cc1ccc(-c2ccc3c(=O)n(-c4ccc(S(C)(=O)=O)cc4)ncc3c2)c(C)c1 [1-8, 6-(2,4-Dimethylphenyl)-2-(4-(methylsulfonyl)phenyl)phthalazin-1(2H)-one]	0.1 to 1 µM
Cc1ccc(-c2ccc3c(=O)n(-c4ccccn4)ncc3c2)c(C)c1 [1-10]	< 0.1 µM
CCn1ncc2cc(-c3cccc(N4CCC4)c3)ccc2c1=O [1-11, 6-(3-(Azetidin-1-yl)phenyl)-2-ethylphthalazin-1(2H)-one]	< 0.1 µM
CC(=O)c1ccc(-n2ncc3cc(-c4ccc(C)cc4C)ccc3c2=O)cc1 [1-12]	0.1 to 1 µM
CCn1ncc2cc(-c3cccc(N4CCCC4)c3)ccc2c1=O [1-13, 2-Ethyl-6-(3-(pyrrolidin-1-yl)phenyl)phthalazin-1(2H)-one]	1 to 10 µM
Cc1ccc(-c2ccc3c(=O)n(-c4ccc(C(C)O)cc4)ncc3c2)c(C)c1 (stereo not drawn) [1-14, 6-(2,4-Dimethylphenyl)-2-(4-(1-hydroxyethyl)phenyl)phthalazin-1(2H)-one]	0.1 to 1 µM
COc1ccc(-c2ccc3c(=O)n(-c4ccccn4)ncc3c2)cc1 [1-17]	0.1 to 1 µM
Cc1ccc(-c2ccc3c(=O)n(-c4ccncc4)ncc3c2)c(C)c1 [1-18]	0.1 to 1 µM
COc1ccccc1-n1ncc2cc(-c3cccc(N4CCC4)c3)ccc2c1=O [1-19]	0.1 to 1 µM
O=c1c2ccc(-c3cccc(N4CCC4)c3)cc2cnn1Cc1ccccc1 [1-20]	0.1 to 1 µM
O=c1c2ccc(-c3cccc(N4CCC4)c3)cc2cnn1-c1ccc(F)cn1 [1-24, 6-(3-(Azetidin-1-yl)phenyl)-2-(5-fluoropyridin-2-yl)phthalazin-1(2H)-one]	0.1 to 1 µM
COc1cccc(-c2ccc3c(=O)n(-c4ncccc4F)ncc3c2)c1 [1-29]	0.1 to 1 µM
COc1cccc(-c2ccc3c(=O)n(-c4cc(C)ccn4)ncc3c2)c1 [1-30]	0.1 to 1 µM
COc1cccc(-c2ccc3c(=O)n(-c4ncccn4)ncc3c2)c1 [1-31]	0.1 to 1 µM
COc1cccc(-c2ccc3c(=O)n(-c4cccc(C)n4)ncc3c2)c1 [1-32]	0.1 to 1 µM
COc1cccc(-c2ccc3c(=O)n(-c4ccccn4)ncc3c2)c1Cl [1-33]	< 0.1 µM

Compound	IC50
O=c1c2ccc(-c3cccc(OC4CC4)c3Cl)cc2cnn1-c1ccccn1 [1-34]	< 0.1 µM
COc1cccc(-c2ccc3c(=O)n(-c4ccccn4)ncc3c2)c1C [1-35]	< 0.1 µM
Cc1c(OC2CC2)cccc1-c1ccc2c(=O)n(-c3ccccn3)ncc2c1 [1-36]	< 0.1 µM
CN1CCc2c(-c3ccc4c(=O)n(-c5ccccn5)ncc4c3)cccc21 [1-37]	< 0.1 µM
O=c1c2ccc(-c3cccc(OC(F)F)c3)cc2cnn1-c1ccccn1 [1-38]	< 0.1 µM
CC(F)(F)c1cccc(-c2ccc3c(=O)n(-c4ccccn4)ncc3c2)c1 [1-39]	0.1 to 1 µM
COc1cccc(-c2ccc3c(=O)n(-c4ncccn4)ncc3c2)c1Cl [1-40]	< 0.1 µM
O=c1c2ccc(-c3cccc(OC4CC4)c3Cl)cc2cnn1-c1ncccn1 [1-41]	0.1 to 1 µM
COc1cccc(-c2ccc3c(=O)n(-c4ncccn4)ncc3c2)c1C [1-42]	< 0.1 µM
Cc1c(OC2CC2)cccc1-c1ccc2c(=O)n(-c3ncccn3)ncc2c1 [1-43]	0.1 to 1 µM
CN1CCc2c(-c3ccc4c(=O)n(-c5ncccn5)ncc4c3)cccc21 [1-44]	< 0.1 µM
O=c1c2ccc(-c3cccc(N4CCC4)c3)cc2cnn1-c1ccccn1 [1-45]	< 0.1 µM
O=c1c2ccc(-c3cccc(N4CCC4)c3)cc2cnn1-c1ncccn1 [1-46]	< 0.1 µM
O=c1c2ccc(-c3cccc4c3ccn4C3CC3)cc2cnn1-c1ccccn1 [1-47]	1 to 10 µM
O=c1c2ccc(-c3cccc4c3ccn4C3CC3)cc2cnn1-c1ncccn1 [1-48]	0.1 to 1 µM
O=c1c2ccc(-c3cc(F)cc(N4CCC4)c3)cc2cnn1-c1ccccn1 [1-49]	0.1 to 1 µM
O=c1c2ccc(-c3nccc(N4CCC4)n3)cc2cnn1-c1ccccn1 [1-50]	1 to 10 µM
O=c1c2ccc(-c3ccc(F)c(N4CCC4)c3)cc2cnn1-c1ccccn1 [1-51]	1 to 10 µM
O=c1c2ccc(-c3cc(N4CCC4)ccc3F)cc2cnn1-c1ccccn1 [1-52]	< 0.1 µM
O=c1c2ccc(-c3cc(N4CCC4)ccn3)cc2cnn1-c1ccccn1 [1-53, 6-(4-(Azetidin-1-yl)pyridin-2-yl)-2-(pyridin-2-yl)phthalazin-1(2H)-one]	1 to 10 µM
COc1cccc(-c2ccc3c(=O)n(-c4ncc(C)cn4)ncc3c2)c1C [1-54]	< 0.1 µM
COc1cnc(-n2ncc3cc(-c4cccc(OC)c4C)ccc3c2=O)nc1 [1-55]	< 0.1 µM
Cc1cnc(-n2ncc3cc(-c4cccc5c4CCN5C)ccc3c2=O)nc1 [1-56]	< 0.1 µM

Compound	IC50
COc1cnc(-n2ncc3cc(-c4cccc5c4CCN5C)ccc3c2=O)nc1 [1-57]	< 0.1 µM
COc1cccc(-c2ccc3c(=O)n(-c4ncccc4F)ncc3c2)c1C [1-58]	< 0.1 µM
COc1cccc(-c2ccc3c(=O)n(C4CCOCC4)ncc3c2)c1C [1-60]	0.1 to 1 µM
CN1CCCc2c(-c3ccc4c(=O)n(-c5ccccn5)ncc4c3)cccc21 [1-61]	< 0.1 µM
COc1cccc(-c2ccc3c(=O)n(-c4ncc(F)cn4)ncc3c2)c1C [1-62]	< 0.1 µM
COc1cccc(-c2ccc3c(=O)n(-c4ncc(N5CCN(C)CC5)cn4)ncc3c2)c1C [1-63]	0.1 to 1 µM
COc1cccc(-c2ccc3c(=O)n(-c4ncc(N5CCOCC5)cn4)ncc3c2)c1C [1-64]	< 0.1 µM
COc1cccc(-c2ccc3c(=O)n(-c4ncc(N5CCC(O)C5)cn4)ncc3c2)c1C (stereo not drawn) [1-65]	< 0.1 µM
COc1cccc(-c2ccc3c(=O)n(CCN4CCOCC4)ncc3c2)c1C [1-66]	0.1 to 1 µM
COc1cccc(-c2ccc3c(=O)n(-c4ccc(SC)cn4)ncc3c2)c1C [1-67]	0.1 to 1 µM
COc1cccc(-c2ccc3c(=O)n(-c4ccc(S(C)(=O)=O)cn4)ncc3c2)c1C [1-68]	0.1 to 1 µM
COc1cccc(-c2ccc3c(=O)n(-c4ncc(OC5CNC5)cn4)ncc3c2)c1C [1-69]	0.1 to 1 µM
COc1cccc(-c2ccc3c(=O)n(-c4ncc(N5CCCC5)cn4)ncc3c2)c1C [1-70]	0.1 to 1 µM
COc1cccc(-c2ccc3c(=O)n(-c4ncc(N5CCCCC5)cn4)ncc3c2)c1C [1-71]	0.1 to 1 µM
COc1cccc(-c2ccc3c(=O)n(-c4ncc(N5CCC(O)CC5)cn4)ncc3c2)c1C [1-72]	< 0.1 µM
COc1cccc(-c2ccc3c(=O)n(-c4ncc(N5CCCC(O)C5)cn4)ncc3c2)c1C (stereo not drawn) [1-73]	< 0.1 µM
COc1cccc(-c2ccc3c(=O)n(-c4ncc(NC5CCC(O)CC5)cn4)ncc3c2)c1C (stereo not drawn) [1-74]	< 0.1 µM
COc1cccc(-c2ccc3c(=O)n(-c4ncc(NC5CCCC(O)C5)cn4)ncc3c2)c1C (stereo not drawn) [1-75]	< 0.1 µM
O=c1c2ccc(-c3cccc(N4CCC4)c3)cc2cnn1-c1ncc(F)cn1 [1-76]	< 0.1 µM
Cc1c(-c2ccc3c(=O)n(-c4ccccn4)ncc3c2)cccc1N1CCC1 [1-77]	< 0.1 µM
COc1cccc(-c2ccc3c(=O)n(-c4ncc(N5CCSCC5)cn4)ncc3c2)c1C [1-78]	0.1 to 1 µM
COCCNc1cnc(-n2ncc3cc(-c4cccc(OC)c4C)ccc3c2=O)nc1 [1-79]	< 0.1 µM
COc1cccc(-c2ccc3c(=O)n(-c4ncc(NCCN(C)C)cn4)ncc3c2)c1C [1-80]	< 0.1 µM
